In patent publication US12258317B2, “Isoquinolinone compound for inhibiting ssao/vap-1, and use thereof” (SUNSHINE LAKE PHARMA CO., LTD., priority 2019, dated 2025):
pIC50: −log10 of the molar value. Where a name gives a salt, the structure may show the parent alone.

Assays:
Human recombinant DAO = Human recombinant DAO (Homo sapiens (Human), UniProt P19801); assay: Determination of selective inhibition of DAO (diamine oxidase) (Amplex Red, 1,4-diaminobutane substrate); assay type: biochemical; conditions: 30 min pre-incubation at 37° C.
Sequence of Human recombinant DAO (P19801 20-751): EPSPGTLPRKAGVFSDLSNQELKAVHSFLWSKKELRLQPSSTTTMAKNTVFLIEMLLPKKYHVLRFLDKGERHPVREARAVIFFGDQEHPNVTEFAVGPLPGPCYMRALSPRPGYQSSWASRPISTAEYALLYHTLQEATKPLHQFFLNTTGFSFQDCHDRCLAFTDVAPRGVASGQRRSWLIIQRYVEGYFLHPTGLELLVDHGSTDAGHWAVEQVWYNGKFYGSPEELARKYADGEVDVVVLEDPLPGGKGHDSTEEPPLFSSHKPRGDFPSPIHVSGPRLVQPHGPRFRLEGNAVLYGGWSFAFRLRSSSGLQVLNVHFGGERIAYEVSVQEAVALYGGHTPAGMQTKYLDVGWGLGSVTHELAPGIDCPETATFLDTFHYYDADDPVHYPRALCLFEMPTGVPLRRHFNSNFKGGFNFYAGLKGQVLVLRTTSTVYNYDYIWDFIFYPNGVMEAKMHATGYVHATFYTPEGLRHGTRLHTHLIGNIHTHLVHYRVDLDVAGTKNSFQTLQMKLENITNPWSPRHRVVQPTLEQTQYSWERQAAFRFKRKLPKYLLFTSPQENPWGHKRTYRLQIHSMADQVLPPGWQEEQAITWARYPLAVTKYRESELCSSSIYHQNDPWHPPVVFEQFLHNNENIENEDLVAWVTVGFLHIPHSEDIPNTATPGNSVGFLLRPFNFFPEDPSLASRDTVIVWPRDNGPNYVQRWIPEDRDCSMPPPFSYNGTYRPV
Text: 2. Determination of Selective Inhibition of DAO (Diamine Oxidase)
Test purpose: The following method is used to determine the selective inhibitory activity of the compound of the present invention on DAO.
• Human recombinant DAO (Recombinant Human ABP-1/DAO) was purchased from R&D, Cat. No. 8298-AO; • Amplex® Red Hydrogen PeroxidePeroxidase Assay Kit was purchased from Invitrogen, Cat. No. A22188; • 1,4-Diaminobutane dihydrochloride was purchased from Aladdin, Cat. No. D106194-25G. Test Method:
The test compound was dissolved in DMSO and diluted 5 times to a total of 6 concentrations. In a 384-well plate, 24 μL of human recombinant DAO (1 μg/mL) was added into each well. 1 μL of test compounds at different concentrations were added to each well containing human recombinant DAO, and the plate was incubated at 37° C. for 30 min. After incubating for 30 min, 25 μL of Amplex® Red Hydrogen Peroxide Peroxidase Assay Kit (containing 100 μM Amplex® Red and 0.2 U/ml HRP) containing 1 M 1,4-butanediamine dihydrochloride was added into the corresponding wells, and the plate was incubated in the dark at 37° C. for 30 min. After 30 min, PHERAstar FSX microplate reader of BMG LABTECH was used to read the fluorescence value (RFU) under excitation at 540 nm and emission at 580 nm. The graph was drawn using Graph Pad Prism 5 software to calculate the IC50 value.

[1] = biological target: human recombinant SSAO/VAP-1 (Homo sapiens (Human), UniProt Q16853); assay: Determination of inhibitory activity of human recombinant SSAO/VAP-1 (Amplex Red, benzylamine substrate); assay type: biochemical; conditions: 30 min pre-incubation at room temperature; read-out: SSAO/VAP-1 (Human Recombinant Protein) IC50
Sequence of human recombinant SSAO/VAP-1 (Q16853 whole entry): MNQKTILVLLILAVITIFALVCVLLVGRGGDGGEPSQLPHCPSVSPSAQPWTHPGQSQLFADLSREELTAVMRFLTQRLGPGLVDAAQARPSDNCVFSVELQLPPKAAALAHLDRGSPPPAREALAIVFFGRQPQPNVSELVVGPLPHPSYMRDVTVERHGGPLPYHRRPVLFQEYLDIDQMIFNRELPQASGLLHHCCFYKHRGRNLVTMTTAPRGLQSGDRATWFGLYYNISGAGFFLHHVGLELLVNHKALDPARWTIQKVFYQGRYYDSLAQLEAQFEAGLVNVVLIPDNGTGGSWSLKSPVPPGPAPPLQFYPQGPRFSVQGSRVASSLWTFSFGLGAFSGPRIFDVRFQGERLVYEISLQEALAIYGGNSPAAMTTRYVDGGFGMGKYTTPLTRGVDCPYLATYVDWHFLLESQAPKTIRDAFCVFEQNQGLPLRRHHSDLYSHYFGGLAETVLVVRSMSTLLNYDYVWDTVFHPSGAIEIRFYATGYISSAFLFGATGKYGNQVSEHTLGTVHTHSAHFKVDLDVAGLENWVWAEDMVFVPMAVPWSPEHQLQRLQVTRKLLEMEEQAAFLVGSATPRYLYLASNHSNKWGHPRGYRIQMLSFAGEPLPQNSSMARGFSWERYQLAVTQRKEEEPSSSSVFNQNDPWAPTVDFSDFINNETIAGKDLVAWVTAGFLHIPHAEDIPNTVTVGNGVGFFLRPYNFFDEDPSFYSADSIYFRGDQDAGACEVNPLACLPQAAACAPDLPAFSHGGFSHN
Text: 1. Determination of Inhibitory Activity of Human Recombinant SSAO/VAP-1
Test purpose: The following method is used to determine the inhibitory activity of the compounds in the examples of the present invention on human recombinant SSAO/VAP-1.
• Human recombinant SSAO/VAP-1 (VAP-1, human) was purchased from Sigma, Cat. No. SRP6241; • Amplex® Red Monoamine Oxidase Assay Kit was purchased from Invitrogen, Cat. No. A12214; • 384-well plate was purchased from Corning, Cat. No. 6005174; • Amplex® Red Hydrogen PeroxidePeroxidase Assay Kit was purchased from Invitrogen, Cat. No. A22188.
Benzylamine hydrochloride was purchased from Sigma, Cat. No. B5136-25G; • DMSO (Dimethyl Sulfoxide) was purchased from Sigma, Cat. No. D2650-100ML; Test Method:
The test compound was dissolved in DMSO and diluted 4 times to a total of 10 concentrations. In a 384-well plate, 25 μL of human recombinant SSAO/VAP-1 (1.6 μg/mL) was added into each well. 100 nL of test compounds at different concentrations were added to each well containing human recombinant SSAO/VAP-1, and the plate was incubated at room temperature for 30 min. After incubating for 30 min, 25 μL of Amplex® Red Monoamine Oxidase Assay Kit (a reaction mixture containing 200 μM Amplex Red reagent, 1 U/mL HRP and 1 mM benzylamine hydrochloride) was added into the corresponding wells, and the plate was incubated at room temperature in the dark for 60 min. After 60 min, PerkinElmer's Envision was used to read the fluorescence value (RFU) under excitation at 530-560 nm and emission at 590 nm. The graph was drawn using Graph Pad Prism 5 software to calculate the IC50 value.

| SMILES | pIC50 (Human recombinant DAO) | pIC50 [1] |
| --- | --- | --- |
| CNC(=O)CN1CCc2cc(OC/C(=C/F)CN)ccc2C1=O [Example 3, 2-[6-[(E)-2-(aminomethyl)-3-fluoro-allyloxy]-1-oxo-3,4-dihydroisoquinolin-2-yl]-N-methyl-acetamide hydrochloride] | < 7.00 |  |
| CNC(=O)CN1CCc2cc(OC/C(=C\F)CN)ccc2C1=O [Example 4, 2-[6-[(Z)-2-(aminomethyl)-3-fluoro-allyloxy]-1-oxo-3,4-dihydroisoquinolin-2-yl]-N-methyl-acetamide hydrochloride] |  | 8.43 |
| CN(C)C(=O)CN1CCc2cc(OC/C(=C\F)CN)ccc2C1=O [Example 8, 2-[6-[(Z)-2-(aminomethyl)-3-fluoro-allyloxy]-1-oxo-3,4-dihydroisoquinolin-2-yl]-N,N-dimethyl-acetamide hydrochloride] |  | 9.00 |
| CCOP(=O)(CCN1CCc2cc(OC/C(=C/F)CN)ccc2C1=O)OCC [Example 24, 6-[(E)-2-(aminomethyl)-3-fluoro-allyloxy]-2-(2-diethoxyphosphorylethyl)-3,4-dihydroisoquinoline-1-one hydrochloride] | < 7.00 | 8.44 |
| CCNC(=O)CN1CCc2cc(OC/C(=C/F)CN)ccc2C1=O [Example 5, 2-[6-[(E)-2-(aminomethyl)-3-fluoro-allyloxy]-1-oxo-3,4-dihydroisoquinolin-2-yl]-N-ethyl-acetamide hydrochloride] | < 7.00 |  |
| CC(C)CNC(=O)CN1CCc2cc(OC/C(=C/F)CN)ccc2C1=O [Example 11, 2-[6-[(E)-2-(aminomethyl)-3-fluoro-allyloxy]-1-oxo-3,4-dihydroisoquinolin-2-yl]-N-isobutyl-acetamide hydrochloride] | < 7.00 |  |
| CN(C)C(=O)CN1CCc2cc(OC/C(=C/F)CN)ccc2C1=O [Example 7, 2-[6-[(E)-2-(aminomethyl)-3-fluoro-allyloxy]-1-oxo-3,4-dihydroisoquinolin-2-yl]-N, N-dimethyl-acetamide hydrochloride] | < 6.00 | 7.95 |
| CC(C)NC(=O)CN1CCc2cc(OC/C(=C/F)CN)ccc2C1=O [Example 9, 2-[6-[(E)-2-(aminomethyl)-3-fluoro-allyloxy]-1-oxo-3,4-dihydroisoquinolin-2-yl]-N-isopropyl-acetamide hydrochloride] | < 6.00 |  |
| CCNC(=O)CN1CCc2cc(OC/C(=C\F)CN)ccc2C1=O [Example 6, 2-[6-[(Z)-2-(aminomethyl)-3-fluoro-allyloxy]-1-oxo-3,4-dihydroisoquinolin-2-yl]-N-ethyl-acetamide hydrochloride] |  | 8.39 |

More lines, now with the values ahead:

| pIC50 (Human recombinant DAO) | pIC50 [1] | SMILES |
| --- | --- | --- |
| < 7.00 |  | NC/C(=C\F)COc1ccc2c(c1)CCN(CC(=O)NCC(F)(F)F)C2=O [Example 13, 2-[6-[(E)-2-(aminomethyl)-3-fluoro-allyloxy]-1-oxo-3,4-dihydroisoquinolin-2-yl]-N-(2,2,2-trifluoroethyl)acetamide hydrochloride] |
| < 6.00 | 7.93 | CCCNC(=O)CN1CCc2cc(OC/C(=C/F)CN)ccc2C1=O [Example 21, 2-[6-[(E)-2-(aminomethyl)-3-fluoro-allyloxy]-1-oxo-3,4-dihydroisoquinolin-2-yl]-N-propyl-acetamide hydrochloride] |
| < 6.00 | 8.40 | NC/C(=C\F)COc1ccc2c(c1)CCN(CC(=O)NC1CC(F)(F)C1)C2=O [Example 19, 2-[6-[(E)-2-(aminomethyl)-3-fluoro-allyloxy]-1-oxo-3,4-dihydroisoquinolin-2-yl]-N-(3,3-difluorocyclobutyl)-acetamide hydrochloride] |
| < 7.00 |  | CC(C)(C)NC(=O)CN1CCc2cc(OC/C(=C/F)CN)ccc2C1=O [Example 15, 2-[6-[(E)-2-(aminomethyl)-3-fluoro-allyloxy]-1-oxo-3,4-dihydroisoquinolin-2-yl]-N-tert-butyl-acetamide hydrochloride] |
| < 7.00 |  | COCCNC(=O)CN1CCc2cc(OC/C(=C/F)CN)ccc2C1=O [Example 22, 2-[6-[(E)-2-(aminomethyl)-3-fluoro-allyloxy]-1-oxo-3,4-dihydroisoquinolin-2-yl]-N-(2-methoxyethyl)acetamide hydrochloride] |
| < 7.00 |  | NC/C(=C\F)COc1ccc2c(c1)CCN(CC(=O)N1CCCC1)C2=O [Example 20, 6-[(E)-2-(aminomethyl)-3-fluoro-allyloxy]-2-(2-oxo-2-pyrrolidin-1-yl-ethyl)-3,4-dihydroisoquinoline-1-one hydrochloride] |
| < 7.00 |  | NC/C(=C\F)COc1ccc2c(c1)CCN(CC(=O)NC1CCC1)C2=O [Example 17, 2-[6-[(E)-2-(aminomethyl)-3-fluoro-allyloxy]-1-oxo-3,4-dihydroisoquinolin-2-yl]-N-cyclobutyl-acetamide hydrochloride] |
| < 7.00 | 8.47 | CS(=O)(=O)CCN1CCc2cc(OC/C(=C/F)CN)ccc2C1=O [Example 25, 6-[(E)-2-(aminomethyl)-3-fluoro-allyloxy]-2-(2-methylsulfonylethyl)-3,4-dihydroisoquinoline-1-one hydrochloride] |
| < 6.00 | 8.06 | CS(=O)(=O)CCNC(=O)CN1CCc2cc(OC/C(=C/F)CN)ccc2C1=O [Example 18, 2-[6-[(E)-2-(aminomethyl)-3-fluoro-allyloxy]-1-oxo-3,4-dihydroisoquinolin-2-yl]-N-(2-methanesulfonylethyl)acetamide hydrochloride] |
| < 7.00 |  | NC/C(=C\F)COc1ccc2c(c1)CCN(CC(=O)NC1CC1)C2=O [Example 16, 2-[6-[(E)-2-(aminomethyl)-3-fluoro-allyloxy]-1-oxo-3,4-dihydroisoquinolin-2-yl]-N-cyclopropyl-acetamide hydrochloride] |
